Reference: US20170007615A1, “Antibacterial Compounds” (priority 2014, published 2017)
Values after ≈ are worked out from the molar mass of the structure shown. Where two headings read alike, the source gives them in different places.

Columns and labels:
[1] = tested on: E. coli (ATCC 25922); assay: microbe, parasite or virus in culture; settings: Escherichia coli
[2] = tested on: E. coli (ATCC 25922); settings: for MIC of Compound (μg/ml) in the presence of PMBN (128 μg/ml): Table 1, (b) No effect; for MIC of Compound (μg/ml) in the presence of PMBN (32 μg/ml): Table 12, (b) No significant effect
[3] = tested on: N. gonorrheae (ATCC 49226); assay: Antibacterial activity (MIC), Gram-negative type strain; format: cell-based, Neisseria gonorrhoeae; settings: Neisseria gonorrhoeae, ATCC49226; Table 13
[4] = tested on: H. influenzae (ATCC 49247); assay: as above; format: cell-based, Haemophilus influenzae; settings: Haemophilus influenzae, ATCC49247; Table 13
[5] = tested on: E. faecalis (ATCC 29212); assay: Antibacterial activity (MIC), Gram-positive type strain; format: cell-based, Enteroccocus faecalis; settings: Enterococcus faecalis, ATCC29212; Table 13
[6] = tested on: S. aureus (ATCC 29213); assay: as above; format: cell-based, Staphylococcus aureus; settings: Staphylococcus aureus, ATCC29213; Table 13
[7] = ATCC25922, read-out: MIC Compound alone, Table 1
[8] = ATCC25922, read-out: MIC Compound alone, Table 12
[9] = ATCC25922, read-out: MIC Compound alone

Row | SMILES | MIC [1, 7] | MIC of Compound (μg/ml) in the presence of PMBN (128 μg/ml) [2] | MIC of Compound (μg/ml) in the presence of PMBN (32 μg/ml) [2] | further results
1 | CCNC(=O)Nc1nc2cc(-c3cnc(N4CCCCS4(=O)=O)nc3)cc(-c3ccccn3)c2s1 [Compound A-24, 1-(5-(2-(1,1-dioxido-1,2-thiazinan-2-yl)pyrimidin-5-yl)-7-(pyridin-2-yl)benzo[d]thiazol-2-yl)-3-ethyl-urea] |  |  |  | MIC [3]: 0.12 µg/mL (≈ 0.235 µM); MIC [4]: 0.5 µg/mL (≈ 0.981 µM); MIC [5]: 0.03 µg/mL (≈ 0.0589 µM); MIC [6]: 0.06 µg/mL (≈ 0.118 µM)
2 | CCNC(=O)Nc1nc2cc(-c3ccc(N4CCCS4(=O)=O)nc3)cc(-c3ccccn3)c2s1 [Compound A-25, 1-[5-[6-(1,1-dioxo-1,2-thiazolidin-2-yl)-3-pyridyl]-7-(2-pyridyl)-1,3-benzothiazol-2-yl]-3-ethylurea] |  |  |  | MIC [3]: 0.5 µg/mL (≈ 1.01 µM); MIC [4]: 1 µg/mL (≈ 2.02 µM); MIC [5]: 0.06 µg/mL (≈ 0.121 µM); MIC [6]: 0.06 µg/mL (≈ 0.121 µM)
3 | CCNC(=O)Nc1nc2cc(-c3cnc(N4CCCS4(=O)=O)nc3)cc(-c3ccccn3)c2s1 [Compound A-26, 1-(5-(2-(1,1-dioxidoisothiazolidin-2-yl)pyrimidin-5-yl)-7-(pyridin-2-yl)benzo[d]thiazol-2-yl)-3-ethylurea] |  |  |  | MIC [3]: 0.25 µg/mL (≈ 0.504 µM); MIC [4]: 0.5 µg/mL (≈ 1.01 µM); MIC [5]: 0.06 µg/mL (≈ 0.121 µM); MIC [6]: 0.06 µg/mL (≈ 0.121 µM)
4 | CCn1cc(C(=O)O)c(=O)c2cc(F)c(N3CCNCC3)nc21 [Enoxacin, reference compound] |  |  | 0.03^(b) μg/ml | MIC [1, 8]: 0.06 µg/mL (≈ 0.187 µM)
5 | CCNC(=O)Nc1nc2cc(-c3cnc(N4CCC(C)(C(=O)O)CC4)nc3)cc(-c3ccccn3)c2s1 [Example 1 (WO2012/045124), 1-[5-[2-(ethylcarbamoylamino)-7-(2-pyridyl)-1,3-benzothiazol-5-yl]pyrimidin-2-yl]-4-methyl-piperidine-4-carboxylic acid] | > 64 µg/mL | 0.5 µg/mL |  | 
6 | CCNC(=O)Nc1nc2cc(-c3cccnc3)ccc2s1 [Example 1 Compound VI(a) (WO2009/074812), 1-ethyl-3-(5-pyridin-3-yl-benzothiazol-2-yl)-urea] | > 64 µg/mL | 8 µg/mL |  | 
7 | CCNC(=O)Nc1nc2cc(-c3cnc(C(C)(C)O)nc3)cc(-c3cc(CN4CCOCC4)ccn3)c2s1 [Example 28 (WO2013/138860), 1-ethyl-3-[5-[2-(1-hydroxy-1-methyl-ethyl)pyrimidin-5-yl]-7-[4-(morpholinomethyl)-2-pyridyl]-1,3-benzothiazol-2-yl]urea] | > 64 µg/mL | 0.5 µg/mL |  | 
8 | CCNC(=O)Nc1nc2cc(-c3cccnc3)cc(-c3ncccc3N)c2s1 [Example 94 (WO2007/148093)] | > 64 µg/mL | 32 µg/mL |  | 
9 | CCNC(=O)Nc1nc2cc(-c3cccnc3)cc(-c3ccccn3)c2s1 [Example 163 (WO2007/148093)] | > 64 µg/mL | 0.25 µg/mL |  | 
10 | C[C@@H](O)[C@H]1C(=O)N2C(C(=O)O)=C(SCCN=CN)C[C@H]12 [Imipenem, reference compound] |  |  | 0.5^(b) μg/ml | MIC [1, 8]: 0.5 µg/mL (≈ 1.67 µM)
11 | NC[C@H]1O[C@H](O[C@H]2[C@H](O)[C@@H](O[C@H]3O[C@H](CO)[C@@H](O)[C@H](N)[C@H]3O)[C@H](N)C[C@@H]2N)[C@H](O)[C@@H](O)[C@@H]1O [Kanamycin, reference compound] |  |  | 4^(b) μg/ml | MIC [1, 8]: 8 µg/mL (≈ 16.5 µM)
12 | C[C@H]1COc2c(N3CCN(C)CC3)c(F)cc3c(=O)c(C(=O)O)cn1c23 [Levofloxacin, reference compound] |  |  | 0.008^(b) μg/ml | MIC [1, 8]: 0.008 µg/mL (≈ 0.0221 µM)
13 | C[C@@H](O)[C@H]1C(=O)N2C(C(=O)O)=C(S[C@@H]3CN[C@H](C(=O)N(C)C)C3)[C@H](C)[C@H]12 [Meropenem, reference compound] |  |  | 0.5^(b) μg/ml | MIC [1, 8]: 0.5 µg/mL (≈ 1.3 µM)
14 | CC1COc2c(N3CCN(C)CC3)c(F)cc3c(=O)c(C(=O)O)cn1c23 (stereo not drawn) [Ofloxacin, reference compound] | 0.03 µg/mL (≈ 0.083 µM) | 0.03^(b) μg/ml | 0.03^(b) μg/ml | MIC [1, 8]: 0.03 µg/mL (≈ 0.083 µM); effect of the presence of PMBN on activity compared to compound alone ([2]; Table 1 experiment): no effect
15 | CCN1CCN(C(=O)N[C@@H](C(=O)N[C@@H]2C(=O)N3[C@@H]2SC(C)(C)[C@@H]3C(=O)O)c2ccccc2)C(=O)C1=O [Piperacillin, reference compound] |  |  | 0.25 µg/mL | MIC [1, 9]: 2 µg/mL (≈ 3.86 µM)
16 | CN(C)[C@@H]1C(O)=C(C(N)=O)C(=O)[C@@]2(O)C(O)=C3C(=O)c4c(O)cccc4[C@@](C)(O)[C@H]3C[C@@H]12 [Tetracycline, reference compound] |  |  | 1^(b) μg/ml | MIC [1, 9]: 1 µg/mL (≈ 2.25 µM)
17 | COc1cc(Cc2cnc(N)nc2N)cc(OC)c1OC [Trimethoprim, reference compound] |  |  | 2^(b) μg/ml | MIC [1, 8]: 0.5 µg/mL (≈ 1.72 µM)

Now from value to compound, other results behind:

Row | MIC [1, 7] | MIC of Compound (μg/ml) in the presence of PMBN (128 μg/ml) [2] | MIC of Compound (μg/ml) in the presence of PMBN (32 μg/ml) [2] | SMILES | further results
18 | > 64 µg/mL | 0.008 µg/mL |  | CCNC(=O)Nc1nc2cc(-c3cnc(NC(=O)OC)nc3)cc(-c3ccccn3)c2s1 [Compound A-5, Methyl N-[5-[2-(ethylcarbamoylamino)-7-(2-pyridyl)-1,3-benzothiazol-5-yl]pyrimidin-2-yl]carbamate] | 
19 | > 64 µg/mL | 0.25 µg/mL |  | CCNC(=O)Nc1nc2cc(-c3cnc(NC(=O)N4CCCC4)nc3)cc(-c3cc(CN4CCOCC4)ccn3)c2s1 [Compound A-6, N-[5-[2-(Ethylcarbamoylamino)-7-[4-(morpholinomethyl)-2-pyridyl]-1,3-benzothiazol-5-yl]pyrimidin-2-yl]pyrrolidine-1-carboxamide] | 
20 | 32 µg/mL (≈ 85.7 µM) | 4 µg/mL |  | CCNC(=O)Nc1nc2cc(-c3cnc(C(C)(O)CO)nc3)ccc2s1 (stereo not drawn) [Compound A-7, 1-[5-[2-(1,2-Dihydroxy-1-methyl-ethyl)pyrimidin-5-yl]-1,3-benzothiazol-2-yl]-3-ethyl-urea] | 
21 | 32 µg/mL (≈ 82.6 µM) | 2 µg/mL |  | CCNC(=O)Nc1nc2cc(-c3cnc(C(C)(O)CO)nc3)cc(C)c2s1 (stereo not drawn) [Compound A-9, 1-[5-[2-(1,2-Dihydroxy-1-methyl-ethyl)pyrimidin-5-yl]-7-methyl-1,3-benzothiazol-2-yl]-3-ethyl-urea] | 
22 | > 64 µg/mL | 0.25 µg/mL |  | CCNC(=O)Nc1nc2cc(-c3cnc(NS(=O)(=O)CC(=O)OC)nc3)cc(-c3ccc(C)cn3)c2s1 [Compound A-16, Methyl 2-[[5-[2-(ethylcarbamoylamino)-7-(5-methyl-2-pyridyl)-1,3-benzothiazol-5-yl]pyrimidin-2-yl]sulfamoyl]acetate] | 
23 | 2 µg/mL (≈ 3.92 µM) | 0.03 µg/mL |  | C=CCS(=O)(=O)Nc1ncc(-c2cc(-c3ccc(C)cn3)c3sc(NC(=O)NCC)nc3c2)cn1 [Compound A-17, 1-[5-[2-(allylsulfonylamino)pyrimidin-5-yl]-7-(5-methyl-2-pyridyl)-1,3-benzothiazol-2-yl]-3-ethyl-urea] | 
24 | > 64 µg/mL | 0.12 µg/mL |  | CCNC(=O)Nc1nc2cc(-c3cnc(NS(=O)(=O)C(C)(C)C)nc3)cc(-c3cnc(N(C)C)nc3)c2s1 [Compound A-18, 1-[5-[2-(tert-butylsulfonylamino)pyrimidin-5-yl]-7-[2-(dimethylamino)pyrimidin-5-yl]-1,3-benzothiazol-2-yl]-3-ethyl-urea] | 
25 | > 64 µg/mL | <=.12 μg/ml |  | CCNC(=O)Nc1nc2cc(-c3cnc(CNS(C)(=O)=O)nc3)cc(-c3ccc(C)cn3)c2s1 [Compound A-19, 1-ethyl-3-[5-[2-(methanesulfonamidomethyl)pyrimidin-5-yl]-7-(5-methyl-2-pyridyl)-1,3-benzothiazol-2-yl]urea] | 
26 | > 64 µg/mL | 32 µg/mL |  | CCNC(=O)Nc1nc2cc(-c3cnc(NS(=O)(=O)C(C)(C)C)nc3)cc(N3CCN(CCN4CCCC4)CC3)c2s1 [Compound A-20, 1-[5-[2-(tert-butylsulfonylamino)pyrimidin-5-yl]-7-[4-(2-pyrrolidin-1-ylethyl)piperazin-1-yl]-1,3-benzothiazol-2-yl]-3-ethyl-urea] | 
27 | 8 µg/mL (≈ 23.6 µM) | 0.5 µg/mL |  | CCNC(=O)Nc1nc2cc(-c3cccnc3)cc(C(=O)OC)c2[nH]1 [Compound A-22, Methyl 2-(ethylcarbamoylamino)-6-(3-pyridyl)-3H-benzimidazole-4-carboxylate, reference compound] | 
28 | 1 µg/mL (≈ 2.55 µM) | 0.06 µg/mL |  | CNc1cc(F)cc2c1[nH]c1nc(Oc3ccc(C)nc3)nc(N3CCCC3)c12 [Compound A-23, 6-Fluoro-N-methyl-2-[(6-methyl-3-pyridyl)oxy]-4-pyrrolidin-1-yl-9H-pyrimido[4,5-b]indol-8-amine, reference compound] | 
29 | > 64 µg/mL | 2 µg/mL |  | CCNC(=O)Nc1nc2c(-c3ccc(C)cn3)cc(-c3cnc(NS(=O)(=O)C(C)(C)C)nc3)cn2n1 [Compound A-101, 1-[6-[2-(tert-butylsulfonylamino)pyrimidin-5-yl]-8-(5-methyl-2-pyridyl)-[1,2,4]triazolo[1,5-a]pyridin-2-yl]-3-ethyl-urea] | 
30 | > 64 µg/mL | 2 µg/mL |  | CC(C)(C)S(=O)(=O)Nc1ncc(-c2cc(Br)c3sc(N)nc3c2)cn1 [Compound A-102, N-[5-(2-amino-7-bromo-1,3-benzothiazol-5-yl)pyrimidin-2-yl]-2-methyl-propane-2-sulfonamide] | 
